Test results: patent US8871753B2, “Macrocyclic compounds and their use as kinase inhibitors” (Incyte Corporation, priority 2008, dated 2014)
Where a name gives a salt, the structure may show the parent alone.

Tests used:
Format in all cases: biochemical
[1] = biological target: T1, human JAK1 (a.a. 837-1142) (Homo sapiens, UniProt P23458); assay: In vitro JAK kinase assay (HTRF, phosphorylation of a biotinylated peptide), JAK1; conditions: method AA1 (90 μM ATP) or AA2 (1000 μM ATP), not stated per value; read-out: JAK1 IC50
T1 construct: human JAK1 (a.a. 837-1142); His tag (N); made in house; host or cells: insect cells (baculovirus)
T1 sequence (P23458 849-1154): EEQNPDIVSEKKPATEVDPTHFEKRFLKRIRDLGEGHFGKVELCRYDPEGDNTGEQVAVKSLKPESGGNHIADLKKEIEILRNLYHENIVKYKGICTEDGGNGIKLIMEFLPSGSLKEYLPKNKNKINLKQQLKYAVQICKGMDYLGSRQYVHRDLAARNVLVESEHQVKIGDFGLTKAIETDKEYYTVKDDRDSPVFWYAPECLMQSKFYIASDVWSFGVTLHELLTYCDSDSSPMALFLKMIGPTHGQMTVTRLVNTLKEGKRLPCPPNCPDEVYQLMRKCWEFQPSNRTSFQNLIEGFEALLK
How it was run: (§1)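 Kinase reactions ran at room temperature for 1 h with ATP matched per isoform (JAK1 90 μM, JAK2 30 μM, JAK3 3 μM). After an EDTA stop, the phosphorylated biotin-peptide was read by HTRF using Eu-Py20 and SA-APC after 40 min binding.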

[2] = biological target: T2, human JAK3 (a.a. 781-1124) (Homo sapiens, UniProt P52333); assay: In vitro JAK kinase assay (HTRF, phosphorylation of a biotinylated peptide), JAK3; conditions: method AA1 (3 μM ATP) or AA2 (1000 μM ATP), not stated per value
T2 construct: JAK3 (a.a. 781-1124); His tag (N); made in house; host or cells: insect cells (baculovirus)
T2 sequence (P52333 781-1124): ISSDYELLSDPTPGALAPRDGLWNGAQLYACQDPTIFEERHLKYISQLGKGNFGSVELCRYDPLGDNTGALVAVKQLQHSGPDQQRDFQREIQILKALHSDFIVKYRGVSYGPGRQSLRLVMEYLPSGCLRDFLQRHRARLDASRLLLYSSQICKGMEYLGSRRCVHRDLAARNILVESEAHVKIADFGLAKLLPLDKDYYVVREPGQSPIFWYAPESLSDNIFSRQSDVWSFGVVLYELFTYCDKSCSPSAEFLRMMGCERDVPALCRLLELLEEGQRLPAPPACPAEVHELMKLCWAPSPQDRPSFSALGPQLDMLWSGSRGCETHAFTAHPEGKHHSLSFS
How it was run: as §1

[3] = biological target: T3, Recombinant Human Anaplastic Lymphoma Kinase (Homo sapiens, UniProt Q9UM73); assay: ALK HTRF kinase assay; conditions: compound at 500 nM or 1 mM; 90 μM ATP
T3 construct: purchased Invitrogen, Carlsbad, Calif
T3 sequence (Q9UM73 19-1620): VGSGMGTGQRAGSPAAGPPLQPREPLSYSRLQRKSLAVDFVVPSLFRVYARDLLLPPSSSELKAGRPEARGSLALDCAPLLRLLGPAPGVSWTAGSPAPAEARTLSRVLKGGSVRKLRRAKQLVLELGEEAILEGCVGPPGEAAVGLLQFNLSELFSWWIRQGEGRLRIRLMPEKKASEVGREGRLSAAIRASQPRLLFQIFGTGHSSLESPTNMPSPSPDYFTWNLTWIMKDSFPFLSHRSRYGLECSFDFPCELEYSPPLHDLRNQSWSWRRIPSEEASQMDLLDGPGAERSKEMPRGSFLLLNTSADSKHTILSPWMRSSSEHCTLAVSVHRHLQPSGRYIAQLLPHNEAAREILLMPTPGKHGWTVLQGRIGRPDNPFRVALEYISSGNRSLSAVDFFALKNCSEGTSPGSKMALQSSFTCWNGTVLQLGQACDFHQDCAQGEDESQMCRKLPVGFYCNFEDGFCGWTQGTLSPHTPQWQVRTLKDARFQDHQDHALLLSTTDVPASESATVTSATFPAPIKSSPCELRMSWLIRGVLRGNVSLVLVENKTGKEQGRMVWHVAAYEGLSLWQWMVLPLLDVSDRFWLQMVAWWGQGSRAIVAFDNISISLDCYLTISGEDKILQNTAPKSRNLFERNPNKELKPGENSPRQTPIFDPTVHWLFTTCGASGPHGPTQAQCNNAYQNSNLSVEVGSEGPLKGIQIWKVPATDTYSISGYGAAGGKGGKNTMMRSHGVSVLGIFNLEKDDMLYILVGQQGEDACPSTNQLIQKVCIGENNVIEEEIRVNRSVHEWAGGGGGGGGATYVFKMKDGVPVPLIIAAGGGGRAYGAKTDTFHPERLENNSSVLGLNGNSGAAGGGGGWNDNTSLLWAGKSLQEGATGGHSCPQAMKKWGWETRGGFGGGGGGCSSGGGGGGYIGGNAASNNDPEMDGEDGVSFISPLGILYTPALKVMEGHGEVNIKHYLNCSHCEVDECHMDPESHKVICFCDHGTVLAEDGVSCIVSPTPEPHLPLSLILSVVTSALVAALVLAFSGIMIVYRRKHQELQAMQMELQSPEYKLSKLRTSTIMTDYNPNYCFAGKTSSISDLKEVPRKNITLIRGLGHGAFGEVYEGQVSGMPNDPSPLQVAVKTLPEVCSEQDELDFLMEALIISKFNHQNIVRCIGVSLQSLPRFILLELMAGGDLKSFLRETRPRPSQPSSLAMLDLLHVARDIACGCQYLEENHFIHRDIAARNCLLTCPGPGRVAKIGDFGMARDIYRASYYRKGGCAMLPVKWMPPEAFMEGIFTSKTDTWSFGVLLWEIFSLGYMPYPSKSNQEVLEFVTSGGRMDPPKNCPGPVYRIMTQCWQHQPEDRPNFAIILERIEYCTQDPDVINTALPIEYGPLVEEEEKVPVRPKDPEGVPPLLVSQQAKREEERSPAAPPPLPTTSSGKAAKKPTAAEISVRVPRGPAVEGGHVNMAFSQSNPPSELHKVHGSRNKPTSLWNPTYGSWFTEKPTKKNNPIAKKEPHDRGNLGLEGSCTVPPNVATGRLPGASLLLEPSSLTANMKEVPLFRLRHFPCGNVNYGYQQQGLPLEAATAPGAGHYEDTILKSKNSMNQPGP
How it was run: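 Readout was HTRF between a Eu-W1024 anti-phosphotyrosine antibody and streptavidin-APC bound to biotinylated peptide phosphorylated by recombinant human ALK. IC50 values came from a four-parameter logistic fit.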

[4] = biological target: TYK2 (Homo sapiens, UniProt P29597); assay: TYK2 kinase inhibition (Table A1)
Chain of TYK2 (P29597 whole entry): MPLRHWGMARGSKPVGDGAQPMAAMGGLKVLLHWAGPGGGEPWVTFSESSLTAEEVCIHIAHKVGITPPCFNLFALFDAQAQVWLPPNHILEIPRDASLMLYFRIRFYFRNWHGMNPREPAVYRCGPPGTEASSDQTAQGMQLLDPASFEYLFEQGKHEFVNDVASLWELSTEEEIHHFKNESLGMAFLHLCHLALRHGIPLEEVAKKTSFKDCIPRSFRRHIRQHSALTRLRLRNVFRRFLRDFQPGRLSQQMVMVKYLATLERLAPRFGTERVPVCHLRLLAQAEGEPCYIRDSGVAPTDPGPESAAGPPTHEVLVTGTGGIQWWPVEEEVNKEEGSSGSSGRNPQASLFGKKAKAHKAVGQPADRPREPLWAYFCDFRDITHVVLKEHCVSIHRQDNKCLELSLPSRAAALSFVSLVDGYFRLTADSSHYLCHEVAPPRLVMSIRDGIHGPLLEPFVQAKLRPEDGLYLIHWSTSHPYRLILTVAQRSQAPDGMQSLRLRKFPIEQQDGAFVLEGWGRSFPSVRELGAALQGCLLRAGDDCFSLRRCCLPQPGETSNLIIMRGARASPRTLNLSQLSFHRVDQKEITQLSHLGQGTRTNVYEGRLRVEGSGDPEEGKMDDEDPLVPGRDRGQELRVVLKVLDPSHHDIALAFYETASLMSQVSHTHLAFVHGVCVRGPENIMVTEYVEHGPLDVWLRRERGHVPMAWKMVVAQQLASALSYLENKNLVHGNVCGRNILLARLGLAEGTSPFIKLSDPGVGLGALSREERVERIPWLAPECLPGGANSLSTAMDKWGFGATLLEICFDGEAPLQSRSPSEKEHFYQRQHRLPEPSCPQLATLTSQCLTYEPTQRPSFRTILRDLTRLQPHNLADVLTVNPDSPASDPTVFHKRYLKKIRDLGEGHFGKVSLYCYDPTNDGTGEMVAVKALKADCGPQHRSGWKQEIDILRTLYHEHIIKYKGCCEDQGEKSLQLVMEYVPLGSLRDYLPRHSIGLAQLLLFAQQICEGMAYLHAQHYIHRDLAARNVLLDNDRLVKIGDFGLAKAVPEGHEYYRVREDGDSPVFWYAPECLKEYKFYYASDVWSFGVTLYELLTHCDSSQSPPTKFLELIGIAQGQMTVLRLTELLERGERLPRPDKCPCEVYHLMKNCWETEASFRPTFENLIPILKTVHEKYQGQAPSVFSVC

[5] = biological target: T4, human JAK2 (a.a. 828-1132) (Homo sapiens, UniProt O60674); assay: In vitro JAK kinase assay (HTRF, phosphorylation of a biotinylated peptide), JAK2; conditions: method AA1 (30 μM ATP) or AA2 (1000 μM ATP), not stated per value
T4 construct: JAK2 (a.a. 828-1132); His tag (N); made in house; host or cells: insect cells (baculovirus)
T4 sequence (O60674 828-1132): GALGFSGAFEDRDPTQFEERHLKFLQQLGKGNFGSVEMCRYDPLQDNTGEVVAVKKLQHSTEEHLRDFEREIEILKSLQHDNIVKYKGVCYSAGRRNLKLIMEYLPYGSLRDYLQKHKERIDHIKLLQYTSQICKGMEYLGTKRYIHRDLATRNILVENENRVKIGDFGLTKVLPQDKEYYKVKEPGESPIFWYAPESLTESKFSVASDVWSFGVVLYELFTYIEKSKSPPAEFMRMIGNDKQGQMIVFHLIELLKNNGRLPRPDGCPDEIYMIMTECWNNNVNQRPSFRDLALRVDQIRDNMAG
How it was run: as §1

IC50 [1] [nM] | IC50 [2] [nM] | ALK % of inhibition at a concentration of 500 nM or 1 mM [3] [%] | IC50 [4] [nM] | IC50 [5] [nM] | Compound
9.3 | > 200 | 31 | 150 | 100 | O=C(CC1CCN(S(=O)(=O)c2ccco2)CC1)Nc1ccc2cc1CCc1cncc(c1)Nc1ncc(Cl)c(n1)N2 [Example A201, N-[6-Chloro-2,4,8,18,22-pentaazatetracyclo[14.3.1.1(3,7).1(9,13)]docosa-1(20),3(22),4,6,9(21),10,12,16,18-nonaen-12-yl]-2-[1-(2-furylsulfonyl)piperidin-4-yl]acetamide bis(trifluoroacetate)]
0.7 | > 200 | 42 | 150 | 14 | O=C(CC1CCN(S(=O)(=O)c2cccnc2)CC1)Nc1ccc2cc1CCc1cncc(c1)Nc1ncc(Cl)c(n1)N2 [Example A202, N-[6-Chloro-2,4,8,18,22-pentaazatetracyclo[14.3.1.1(3,7).1(9,13)]docosa-1(20),3(22),4,6,9(21),10,12,16,18-nonaen-12-yl]-2-[1-(pyridin-3-ylsulfonyl)piperidin-4-yl]acetamide tris(trifluoroacetate)]
38 | > 200 | 38 | > 200 | 150 | O=C(CC1CCN(C(=O)c2ccc(F)cc2)CC1)Nc1ccc2cc1CCc1cccc(c1)Nc1ncc(Cl)c(n1)N2 [Example A203, N-[6-Chloro-2,4,8,22-tetraazatetracyclo[14.3.1.1(3,7).1(9,13)]docosa-1(20),3(22),4,6,9(21),10,12,16,18-nonaen-12-yl]-2-[1-(4-fluorobenzoyl)piperidin-4-yl]acetamide trifluoroacetate]
20 | > 200 | 28 | > 200 | 100 | O=C(CC1CCN(C(=O)c2ccc(F)cc2F)CC1)Nc1ccc2cc1CCc1cccc(c1)Nc1ncc(Cl)c(n1)N2 [Example A204, N-[6-Chloro-2,4,8,22-tetraazatetracyclo[14.3.1.1(3,7).1(9,13)]docosa-1(20),3(22),4,6,9(21),10,12,16,18-nonaen-12-yl]-2-[1-(2,4-difluorobenzoyl)piperidin-4-yl]acetamide trifluoroacetate]
52 | > 200 | 23 | > 200 | 199 | O=C(CC1CCN(S(=O)(=O)c2ccccc2)CC1)Nc1ccc2cc1CCc1cccc(c1)Nc1ncc(Cl)c(n1)N2 [Example A205, N-[6-Chloro-2,4,8,22-tetraazatetracyclo[14.3.1.1(3,7).1(9,13)]docosa-1(20),3(22),4,6,9(21),10,12,16,18-nonaen-12-yl]-2-[1-(phenylsulfonyl)piperidin-4-yl]acetamide trifluoroacetate]
85 | > 200 | 23 | > 200 | 199 | COc1ccc(S(=O)(=O)N2CCC(CC(=O)Nc3ccc4cc3CCc3cccc(c3)Nc3ncc(Cl)c(n3)N4)CC2)cc1 [Example A207, N-[6-Chloro-2,4,8,22-tetraazatetracyclo[14.3.1.1(3,7).1(9,13)]docosa-1(20),3(22),4,6,9(21),10,12,16,18-nonaen-12-yl]-2-{1-[(4-methoxyphenyl)sulfonyl]piperidin-4-yl}acetamide trifluoroacetate]
1.6 | > 200 | 17 | 150 | 41 | N#Cc1ccccc1S(=O)(=O)N1CCC(CC(=O)Nc2ccc3cc2CCc2cccc(c2)Nc2ncc(Cl)c(n2)N3)CC1 [Example A208, N-[6-Chloro-2,4,8,22-tetraazatetracyclo[14.3.1.1(3,7).1(9,13)]docosa-1(20),3(22),4,6,9(21),10,12,16,18-nonaen-12-yl]-2-{1-[(2-cyanophenyl)sulfonyl]piperidin-4-yl}acetamide trifluoroacetate]
60 | > 200 | 19 | > 200 | 120 | N#Cc1ccc(S(=O)(=O)N2CCC(CC(=O)Nc3ccc4cc3CCc3cccc(c3)Nc3ncc(Cl)c(n3)N4)CC2)cc1 [Example A209, N-[6-Chloro-2,4,8,22-tetraazatetracyclo[14.3.1.1(3,7).1(9,13)]docosa-1(20),3(22),4,6,9(21),10,12,16,18-nonaen-12-yl]-2-{1-[(4-cyanophenyl)sulfonyl]piperidin-4-yl}acetamide trifluoroacetate]
35 | > 200 | 20 | > 200 | 90 | Cc1oncc1S(=O)(=O)N1CCC(CC(=O)Nc2ccc3cc2CCc2cccc(c2)Nc2ncc(Cl)c(n2)N3)CC1 [Example A210, N-[6-Chloro-2,4,8,22-tetraazatetracyclo[14.3.1.1(3,7).1(9,13)]docosa-1(20),3(22),4,6,9(21),10,12,16,18-nonaen-12-yl]-2-{1-[(5-methylisoxazol-4-yl)sulfonyl]piperidin-4-yl}acetamide trifluoroacetate]
12 | > 200 | 37 | 150 | 66 | O=C(CC1CCN(S(=O)(=O)c2ccco2)CC1)Nc1ccc2cc1CCc1cccc(c1)Nc1ncc(Cl)c(n1)N2 [Example A211, N-[6-Chloro-2,4,8,22-tetraazatetracyclo[14.3.1.1(3,7).1(9,13)]docosa-1(20),3(22),4,6,9(21),10,12,16,18-nonaen-12-yl]-2-[1-(2-furylsulfonyl)piperidin-4-yl]acetamide trifluoroacetate]
1.3 | > 200 | 45 | 85 | 8.6 | O=C(CC1CCN(S(=O)(=O)c2cccnc2)CC1)Nc1ccc2cc1CCc1cccc(c1)Nc1ncc(Cl)c(n1)N2 [Example A212, N-[6-Chloro-2,4,8,22-tetraazatetracyclo[14.3.1.1(3,7).1(9,13)]docosa-1(20),3(22),4,6,9(21),10,12,16,18-nonaen-12-yl]-2-[1-(pyridin-3-ylsulfonyl)piperidin-4-yl]acetamide bis(trifluoroacetate)]
58 | > 200 | 27 | > 200 | > 200 | O=C(CC1CCN(C(=O)c2cnoc2C2CC2)CC1)Nc1ccc2cc1CCc1cncc(c1)Nc1ncc(Cl)c(n1)N2 [Example A213, N-[6-Chloro-2,4,8,18,22-pentaazatetracyclo[14.3.1.1(3,7).1(9,13)]docosa-1(20),3(22),4,6,9(21),10,12,16,18-nonaen-12-yl]-2-{1-[(5-cyclopropylisoxazol-4-yl)carbonyl]piperidin-4-yl}acetamide bis(trifluoroacetate)]
50 | > 200 | 15 | > 200 | > 200 | CC(C)c1cc(C(=O)N2CCC(CC(=O)Nc3ccc4cc3CCc3cncc(c3)Nc3ncc(Cl)c(n3)N4)CC2)no1 [Example A214, N-[6-Chloro-2,4,8,18,22-pentaazatetracyclo[14.3.1.1(3,7).1(9,13)]docosa-1(20),3(22),4,6,9(21),10,12,16,18-nonaen-12-yl]-2-{1-[(5-isopropylisoxazol-3-yl)carbonyl]piperidin-4-yl}acetamide bis(trifluoroacetate)]
16 | > 200 | 32 | 160 | 185 | COc1cc(C(=O)N2CCC(CC(=O)Nc3ccc4cc3CCc3cncc(c3)Nc3ncc(Cl)c(n3)N4)CC2)on1 [Example A215, N-[6-Chloro-2,4,8,18,22-pentaazatetracyclo[14.3.1.1(3,7).1(9,13)]docosa-1(20),3(22),4,6,9(21),10,12,16,18-nonaen-12-yl]-2-{1-[(3-methoxyisoxazol-5-yl)carbonyl]piperidin-4-yl}acetamide bis(trifluoroacetate)]
80 | > 200 | 29 | > 200 | > 200 | Cc1ncsc1C(=O)N1CCC(CC(=O)Nc2ccc3cc2CCc2cncc(c2)Nc2ncc(Cl)c(n2)N3)CC1 [Example A216, N-[6-Chloro-2,4,8,18,22-pentaazatetracyclo[14.3.1.1(3,7).1(9,13)]docosa-1(20),3(22),4,6,9(21),10,12,16,18-nonaen-12-yl]-2-{1-[(4-methyl-1,3-thiazol-5-yl)carbonyl]piperidin-4-yl}acetamide bis(trifluoroacetate)]
